We go through 23 compounds from patent US20250346597A1, “CONDENSED HETEROCYCLIC COMPOUNDS AS INHIBITOR OF DIACYLGLYCEROL KINASES” (BEONE MEDICINES I GMBH, priority 2023, published 2025).

Experiment [1] has as its target DGKζ (Homo sapiens (Human), UniProt Q13574). As to the kind of experiment: Biochemical DGK IC50 assay (ADP-Glo, lipid micelle substrate), DGKζ. As to conditions: full length DGKζ 0.5 nM, ATP 140 μM, DAG 80 μM. The essentials:
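Full-length human His-TEV-tagged DGKζ, expressed in Sf9 cells and purified, was run at room temperature on DAG/PS lipid micelles in 50 mM HEPES, 10 mM MgCl2, 0.01 mM CaCl2 buffer. After 1 h reaction, ADP formed was detected by ADP-Glo luminescence. IC50s came from inhibition across increasing compound concentrations.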

Experiment [2] concerns the target DGKα (Homo sapiens (Human), UniProt P23743). As to the kind of experiment: Biochemical DGK IC50 assay (ADP-Glo, lipid micelle substrate), DGKα. Note: full length DGKα 7.5 nM. The settings on record: full length DGKα […], ATP 140 μM, DAG 80 μM. The essentials: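 Full-length human DGKα assayed by ADP-Glo with DAG/PS lipid micelle substrate at room temperature in 50 mM HEPES, 10 mM MgCl2, 0.01% BSA, 0.1 mM Na3VO4, 0.005% Tween-20, 0.01 mM CaCl2.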
In general terms: ADP-Glo first removes unused ATP, then detects ADP through luciferase.

Chain of DGKα (P23743 whole entry): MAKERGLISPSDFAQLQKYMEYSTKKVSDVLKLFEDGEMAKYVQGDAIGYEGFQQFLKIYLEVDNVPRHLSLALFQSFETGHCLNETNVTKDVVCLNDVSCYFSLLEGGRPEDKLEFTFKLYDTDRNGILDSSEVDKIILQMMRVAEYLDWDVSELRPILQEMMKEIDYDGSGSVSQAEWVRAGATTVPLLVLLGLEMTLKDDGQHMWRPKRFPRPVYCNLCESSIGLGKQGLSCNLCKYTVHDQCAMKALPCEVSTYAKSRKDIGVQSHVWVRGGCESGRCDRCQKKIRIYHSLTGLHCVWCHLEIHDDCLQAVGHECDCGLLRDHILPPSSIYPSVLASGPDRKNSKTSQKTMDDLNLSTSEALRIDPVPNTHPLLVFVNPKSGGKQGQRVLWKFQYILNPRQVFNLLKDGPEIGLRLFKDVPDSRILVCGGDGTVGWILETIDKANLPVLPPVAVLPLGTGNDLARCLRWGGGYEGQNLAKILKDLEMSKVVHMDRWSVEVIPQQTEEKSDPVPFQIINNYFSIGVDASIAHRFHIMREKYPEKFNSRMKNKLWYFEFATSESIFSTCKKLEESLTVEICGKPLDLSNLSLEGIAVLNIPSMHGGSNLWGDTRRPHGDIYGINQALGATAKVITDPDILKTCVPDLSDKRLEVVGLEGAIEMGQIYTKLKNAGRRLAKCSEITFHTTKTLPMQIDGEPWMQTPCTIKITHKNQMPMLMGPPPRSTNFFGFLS
Chain of DGKζ (Q13574 other isoform, or with tags, fused parts or gaps): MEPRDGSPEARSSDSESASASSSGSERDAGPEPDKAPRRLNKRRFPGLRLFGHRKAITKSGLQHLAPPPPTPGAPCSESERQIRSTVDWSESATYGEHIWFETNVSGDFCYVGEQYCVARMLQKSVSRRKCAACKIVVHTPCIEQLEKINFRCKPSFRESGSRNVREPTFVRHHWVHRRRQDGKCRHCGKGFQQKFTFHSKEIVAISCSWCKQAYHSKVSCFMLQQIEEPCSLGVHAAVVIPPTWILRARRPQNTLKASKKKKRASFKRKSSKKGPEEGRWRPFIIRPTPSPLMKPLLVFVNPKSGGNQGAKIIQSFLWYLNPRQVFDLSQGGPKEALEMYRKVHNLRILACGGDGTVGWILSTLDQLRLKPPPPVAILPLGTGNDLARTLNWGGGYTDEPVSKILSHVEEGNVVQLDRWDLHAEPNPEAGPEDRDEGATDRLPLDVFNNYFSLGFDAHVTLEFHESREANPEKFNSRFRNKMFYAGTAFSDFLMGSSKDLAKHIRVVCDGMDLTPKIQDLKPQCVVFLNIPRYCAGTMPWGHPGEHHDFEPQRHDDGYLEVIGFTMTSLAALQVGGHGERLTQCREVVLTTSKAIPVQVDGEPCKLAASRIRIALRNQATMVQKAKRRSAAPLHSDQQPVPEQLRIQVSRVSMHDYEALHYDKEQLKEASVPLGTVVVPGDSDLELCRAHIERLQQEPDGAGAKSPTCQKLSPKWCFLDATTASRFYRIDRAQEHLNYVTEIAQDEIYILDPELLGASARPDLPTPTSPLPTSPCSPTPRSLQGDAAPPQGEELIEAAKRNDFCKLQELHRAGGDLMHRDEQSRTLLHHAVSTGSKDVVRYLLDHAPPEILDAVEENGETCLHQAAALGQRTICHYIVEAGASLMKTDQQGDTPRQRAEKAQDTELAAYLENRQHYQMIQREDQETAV

What is called IC50 is the midpoint of a concentration-inhibition curve. Read a high IC50 as weaker potency. Turning to `CC[C@H]1CN(C(C)c2ccc(CN(C)C)cc2)[C@H](CC)CN1c1cc(=O)n(C)c2cn(CC#N)nc12` (stereo partly drawn) [Compound A28, 2-(7-((2S,5R)-4-(1-(4-((dimethylamino)methyl)phenyl)ethyl)-2,5-diethylpiperazin-1-yl)-4-methyl-5-oxo-4,5-dihydro-2H-pyrazolo[4,3-b]pyridin-2-yl)acetonitrile], the IC50 turned out to be 4830 nM in experiment [1] and 10000 nM in experiment [2].
The matching figures for `CC[C@H]1CN(C(C)c2ccc(CNC)cc2)[C@H](CC)CN1c1cc(=O)n(C)c2cn(CC#N)nc12` (stereo partly drawn) [Compound A29, 2-(7-((2S,5R)-2,5-diethyl-4-(1-(4-((methylamino)methyl)phenyl)ethyl)piperazin-1-yl)-4-methyl-5-oxo-4,5-dihydro-2H-pyrazolo[4,3-b]pyridin-2-yl)acetonitrile]: 3930 nM and 2600 nM.
Regarding `CC[C@H]1CN(C(C)c2ccc(-c3cn(C)nn3)cc2)[C@H](CC)CN1c1cc(=O)n(C)c2cn(CC#N)nc12` (stereo partly drawn) [Compound A30, 2-(7-((2S,5R)-2,5-diethyl-4-(1-(4-(1-methyl-1H-1,2,3-triazol-4-yl)phenyl)ethyl)piperazin-1-yl)-4-methyl-5-oxo-4,5-dihydro-2H-pyrazolo[4,3-b]pyridin-2-yl)acetonitrile], the IC50 was 3690 nM in experiment [1] and 666 nM in experiment [2].
Regarding `CC[C@H]1CN(C(C)c2ccc(C(C)C)cc2)[C@H](CC)CN1c1cc(=O)n(C)c2cn(CC#N)nc12` (stereo partly drawn) [Compound A31, 2-(7-((2S,5R)-2,5-diethyl-4-(1-(4-isopropylphenyl)ethyl)piperazin-1-yl)-4-methyl-5-oxo-4,5-dihydro-2H-pyrazolo[4,3-b]pyridin-2-yl)acetonitrile], the IC50 in experiment [1] came to 213 nM; in experiment [2], 615 nM.
For the compound `CC[C@H]1CN(C(C)c2ccc(OC3CC3)cc2)[C@H](CC)CN1c1cc(=O)n(C)c2cn(CC#N)nc12` (stereo partly drawn) [Compound A32, 2-(7-((2S,5R)-4-(1-(4-cyclopropoxyphenyl)ethyl)-2,5-diethylpiperazin-1-yl)-4-methyl-5-oxo-4,5-dihydro-2H-pyrazolo[4,3-b]pyridin-2-yl)acetonitrile], the IC50 was 244 nM in experiment [1] and 183 nM in experiment [2].
Taken in the same sequence, the figures for `CC[C@H]1CN([C@H](C)c2ccc(OC(C)C)cc2)[C@H](CC)CN1c1cc(=O)n(C)c2cn(CC#N)nc12` [Compound A33a] were 45 nM and 49 nM.
Take `CC[C@H]1CN([C@@H](C)c2ccc(OC(C)C)cc2)[C@H](CC)CN1c1cc(=O)n(C)c2cn(CC#N)nc12` [Compound A33b]: the IC50 turned out to be 770 nM in experiment [1] and 344 nM in experiment [2].
In the case of `CC[C@H]1CN(C(C)c2ccc(OC3CC3)nc2)[C@H](CC)CN1c1cc(=O)n(C)c2cn(CC#N)nc12` (stereo partly drawn) [Compound A37, 2-(7-((2S,5R)-4-(1-(6-cyclopropoxypyridin-3-yl)ethyl)-2,5-diethylpiperazin-1-yl)-4-methyl-5-oxo-4,5-dihydro-2H-pyrazolo[4,3-b]pyridin-2-yl)acetonitrile], the figures for the half-maximal inhibitory concentration (IC50) in experiment [1] and in experiment [2] were 202 nM and 541 nM, respectively.
As to `CC[C@H]1CN(C(C)c2ccc(OC)nc2)[C@H](CC)CN1c1cc(=O)n(C)c2cn(CC#N)nc12` (stereo partly drawn) [Compound A41, 2-(7-((2S,5R)-2,5-diethyl-4-(1-(6-methoxypyridin-3-yl)ethyl)piperazin-1-yl)-4-methyl-5-oxo-4,5-dihydro-2H-pyrazolo[4,3-b]pyridin-2-yl)acetonitrile], the results for the IC50 in experiment [1] and in experiment [2] were 151 nM and 347 nM, respectively.
Taken in the same sequence, the figures for `CC[C@H]1CN(C(C)c2ccc(C(F)(F)F)c(C)n2)[C@H](CC)CN1c1cc(=O)n(C)c2cn(CC#N)nc12` (stereo partly drawn) [Compound A50, 2-(7-((2S,5R)-2,5-diethyl-4-(1-(6-methyl-5-(trifluoromethyl)pyridin-2-yl)ethyl)piperazin-1-yl)-4-methyl-5-oxo-4,5-dihydro-2H-pyrazolo[4,3-b]pyridin-2-yl)acetonitrile] were 83 nM and 703 nM.
The matching figures for `CC[C@H]1CN(C(C)c2ccc(C3CC3)cn2)[C@H](CC)CN1c1cc(=O)n(C)c2cn(CC#N)nc12` (stereo partly drawn) [Compound A52, 2-(7-((2S,5R)-4-(1-(5-cyclopropylpyridin-2-yl)ethyl)-2,5-diethylpiperazin-1-yl)-4-methyl-5-oxo-4,5-dihydro-2H-pyrazolo[4,3-b]pyridin-2-yl)acetonitrile]: 99 nM and 118 nM.
The matching figures for `CC[C@H]1CN(C(C)c2ncc(C)cc2C)[C@H](CC)CN1c1cc(=O)n(C)c2cn(CC#N)nc12` (stereo partly drawn) [Compound A53, 2-(7-((2S,5R)-4-(1-(3,5-dimethylpyridin-2-yl)ethyl)-2,5-diethylpiperazin-1-yl)-4-methyl-5-oxo-4,5-dihydro-2H-pyrazolo[4,3-b]pyridin-2-yl)acetonitrile]: 331 nM and 4490 nM.
In the case of `CC[C@H]1CN(C(C)c2ccc(OC)c(C)n2)[C@H](CC)CN1c1cc(=O)n(C)c2cn(CC#N)nc12` (stereo partly drawn) [Compound A55, 2-(7-((2S,5R)-2,5-diethyl-4-(1-(5-methoxy-6-methylpyridin-2-yl)ethyl)piperazin-1-yl)-4-methyl-5-oxo-4,5-dihydro-2H-pyrazolo[4,3-b]pyridin-2-yl)acetonitrile], the IC50 in experiment [1] amounted to 653 nM; in experiment [2] it was 2340 nM.
The matching figures for `CC[C@H]1CN(C(C)c2ccc(C)c(COC)n2)[C@H](CC)CN1c1cc(=O)n(C)c2cn(CC#N)nc12` (stereo partly drawn) [Compound A56, 2-(7-((2S,5R)-2,5-diethyl-4-(1-(6-(methoxymethyl)-5-methylpyridin-2-yl)ethyl)piperazin-1-yl)-4-methyl-5-oxo-4,5-dihydro-2H-pyrazolo[4,3-b]pyridin-2-yl)acetonitrile]: 271 nM and 2580 nM.
The matching figures for `CC[C@H]1CN(C(C)c2ncc(C3CC3)cc2C)[C@H](CC)CN1c1cc(=O)n(C)c2cn(CC#N)nc12` (stereo partly drawn) [Compound A57, 2-(7-((2S,5R)-4-(1-(5-cyclopropyl-3-methylpyridin-2-yl)ethyl)-2,5-diethylpiperazin-1-yl)-4-methyl-5-oxo-4,5-dihydro-2H-pyrazolo[4,3-b]pyridin-2-yl)acetonitrile]: 51 nM and 14300 nM.
Regarding `CC[C@H]1CN(C(C)c2ccc(C3CC3)c(C)n2)[C@H](CC)CN1c1cc(=O)n(C)c2cn(CC#N)nc12` (stereo partly drawn) [Compound A58, 2-(7-((2S,5R)-4-(1-(5-cyclopropyl-6-methylpyridin-2-yl)ethyl)-2,5-diethylpiperazin-1-yl)-4-methyl-5-oxo-4,5-dihydro-2H-pyrazolo[4,3-b]pyridin-2-yl)acetonitrile], the values for the IC50 in experiment [1] and in experiment [2] were 94 nM and 487 nM, respectively.
The matching figures for `CC[C@H]1CN(C(C)c2ccc(OC)cn2)[C@H](CC)CN1c1cc(=O)n(C)c2cn(CC#N)nc12` (stereo partly drawn) [Compound A59, 2-(7-((2S,5R)-2,5-diethyl-4-(1-(5-methoxypyridin-2-yl)ethyl)piperazin-1-yl)-4methyl-5-oxo-4,5-dihydro-2H-pyrazolo[4,3-b]pyridin-2-yl)acetonitrile]: 536 nM and 137 nM.
The matching figures for `CC[C@H]1CN(C(C)c2ncc(OC)cc2C)[C@H](CC)CN1c1cc(=O)n(C)c2cn(CC#N)nc12` (stereo partly drawn) [Compound A60, 2-(7-((2S,5R)-2,5-diethyl-4-(1-(5-methoxy-3-methylpyridin-2-yl)ethyl)piperazin-1-yl)-4-methyl-5-oxo-4,5-dihydro-2H-pyrazolo[4,3-b]pyridin-2-yl)acetonitrile]: 643 nM and 38000 nM.
The matching figures for `CC[C@H]1CN(C(C)c2ccc(COC)cn2)[C@H](CC)CN1c1cc(=O)n(C)c2cn(CC#N)nc12` (stereo partly drawn) [Compound A61, 2-(7-((2S,5R)-2,5-diethyl-4-(1-(5-(methoxymethyl)pyridin-2-yl)ethyl)piperazin-1-yl)-4-methyl-5-oxo-4,5-dihydro-2H-pyrazolo[4,3-b]pyridin-2-yl)acetonitrile]: 298 nM and 143 nM.
Take `CC[C@H]1CN(C(C)c2ccc(C3CC3)c(F)n2)[C@H](CC)CN1c1cc(=O)n(C)c2cn(CC#N)nc12` (stereo partly drawn) [Compound A62, 2-(7-((2S,5R)-4-(1-(5-cyclopropyl-6-fluoropyridin-2-yl)ethyl)-2,5-diethylpiperazin-1-yl)-4-methyl-5-oxo-4,5-dihydro-2H-pyrazolo[4,3-b]pyridin-2-yl)acetonitrile]: the IC50 in experiment [1] was 154 nM; in experiment [2], 21 nM.
Regarding `CC[C@H]1CN(C(C)c2cc(F)c(C3CC3)cn2)[C@H](CC)CN1c1cc(=O)n(C)c2cn(CC#N)nc12` (stereo partly drawn) [Compound A63, 2-(7-((2S,5R)-4-(1-(5-cyclopropyl-4-fluoropyridin-2-yl)ethyl)-2,5-diethylpiperazin-1-yl)-4-methyl-5-oxo-4,5-dihydro-2H-pyrazolo[4,3-b]pyridin-2-yl)acetonitrile], the IC50 in experiment [1] was 21 nM; in experiment [2], 167 nM.
Taken in the same sequence, the figures for `CC[C@H]1CN(C(C)c2cc3c(cc2F)OC(C)(C)CO3)[C@H](CC)CN1c1cc(=O)n(C)c2cn(CC#N)nc12` (stereo partly drawn) [Compound A64, 2-(7-((2S,5R)-2,5-diethyl-4-(1-(7-fluoro-2,2-dimethyl-2,3-dihydrobenzo[b][1,4]dioxin-6-yl)ethyl)piperazin-1-yl)-4-methyl-5-oxo-4,5-dihydro-2H-pyrazolo[4,3-b]pyridin-2-yl)acetonitrile] were 7.8 nM and 1040 nM.
Turning to `CC[C@H]1CN(C(C)c2ccc3c(c2)CCC3)[C@H](CC)CN1c1cc(=O)n(C)c2cn(CC#N)nc12` (stereo partly drawn) [Compound A65, 2-(7-((2S,5R)-4-(1-(2,3-dihydro-1H-inden-5-yl)ethyl)-2,5-diethylpiperazin-1-yl)-4-methyl-5-oxo-4,5-dihydro-2H-pyrazolo[4,3-b]pyridin-2-yl)acetonitrile], the figures for the IC50 in experiment [1] and in experiment [2] were 66 nM and 295 nM, respectively.
